According to US20260232846A1, “FLUORESCENT PROBE COMPOUND AND COMPOSITE COMPRISING SAME” (KOREA RESEARCH INSTITUTE OF BIOSCIENCE AND BIOTECHNOLOGY, priority 2022, published 2026):

Key:
[1] = system: MC3T3-E1 cells; test: Dephosphorylation of probe compounds on cell-cultured CDHA (fluorescence images, radiant efficiency); format: cell-based; details: CDHA specimen cultured with cells, treated with probe; diffused ALP hydrolysis increased over time in MC3T3-E1 cells
Method: In order to confirm the dephosphorylation of the fluorescent probe compounds by ALP or pH change on CDHA, three bare CDHA specimens and three CDHA specimens cultured with MC3T3-E1 cells and Raw264.7 cells were prepared, the results of examining fluorescence images obtained by treating, the three specimens, one of which was treated with the bone-forming activity marker-sensitive fluorescent probe compound of Synthetic Example 1, another of which was treated with the bone-resorbing activity marker-sensitive fluorescent probe compound of Synthetic Example 2, and the remaining one of which was treated with both the bone-forming activity marker-sensitive fluorescent probe compound and the bone-resorbing activity marker-sensitive fluorescent probe compound, were illustrated in FIG. 11, and the results of measuring fluorescence efficiency (radiant efficiency) in each of six specimens were illustrated in FIGS. 12A and 12B.

[2] = system: Raw264.7 cells
[3] = system: MC3T3-E1 cells

Compound: CC1(C)C(/C=C/C2=C3Oc4cc(OCc5ccc(OP(=O)(O)O)cc5)ccc4C=C3CCC2)=[N+](CCCCC(=O)NCCCC(O)(P(=O)(O)O)P(=O)(O)O)c2ccccc21 [compound 1-7]
- fluorescence signal (radiant efficiency) [1]: high fluorescence signal

Compound: calcium deficient hydroxyapatite [CDHA]
- cell proliferation (%) [2]: ~170%
- cell proliferation (%) [3]: ~170%
